Reference: ChEMBL document CHEMBL1138659 (J Med Chem, 2004)

What was measured:
[1] = molecular target: cAMP-dependent protein kinase catalytic subunit beta (Homo sapiens, UniProt P22694); assay: Inhibition of human Protein kinase A beta
[2] = molecular target: Vascular endothelial growth factor receptor 2 (Homo sapiens, UniProt P35968); assay: Inhibition of human Vascular endothelial growth factor receptor 2
[3] = molecular target: RAC-alpha serine/threonine-protein kinase (Homo sapiens, UniProt P31749); assay: Inhibition of human Akt1
Rattus norvegicus [4] = species on record: Rattus norvegicus; assay: Threshold minimal effective dose in rats; format: functional
[5] = molecular target: Protein kinase C beta type (Homo sapiens, UniProt P05771); assay: Inhibition of human Protein kinase C beta 2
[6] = molecular target: T1, Glycogen synthase kinase-3 beta (Homo sapiens, UniProt P49841); assay: Inhibition of Glycogen synthase kinase-3 beta dependent Tau protein serine-396 phosphorylation in human SY5Y cells; format: functional, cell-based
[7] = molecular target: Cyclin-dependent kinase 2 (Homo sapiens, UniProt P24941); assay: Inhibition of human Cyclin-dependent kinase 2
[8] = molecular target: Cyclin-dependent kinase 4 (Homo sapiens, UniProt P11802); assay: Inhibition of human Cyclin-dependent kinase 4
TGF-beta receptor type-2 = TGF-beta receptor type-2 (Homo sapiens, UniProt P37173); assay: Inhibition of human TGF-beta type II receptor
Rattus norvegicus [9] = assay: In vivo insulin (10 units) response in rats at 10 mg/kg dose; format: functional
Rattus norvegicus [10] = assay: In vivo glucose reduction in rats at 10 mg/kg dose; format: functional; set-up: scale not given: the % may be the effect or the level left
[11] = molecular target: T1, Glycogen synthase kinase-3 beta
Description: Inhibition of human Glycogen synthase kinase-3 beta

[12] = molecular target: Mitogen-activated protein kinase kinase kinase 20 (Homo sapiens, UniProt Q9NYL2)
MAP kinase p38 = MAP kinase p38 (Homo sapiens, UniProt O15264+Q15759+Q16539+P53778); assay: Inhibition of human Mitogen-activated protein kinase p38
[13] = Compound was tested for in vivo clearance; format: ADME, organism-based; conditions: rat
[14] = Compound was tested for volume distribution; format: ADME; conditions: rat; read-out: Volume distribution
[15] = Oral bioavailability; format: ADME, organism-based; conditions: rat, in vivo
[16] = Half life in oral, hours; format: ADME, organism-based; conditions: rat, in vivo
[17] = Half life in in vivo, hours; format: ADME, organism-based; conditions: rat
[18] = Compound was tested for oral AUC at 0 to 24 hours; format: ADME; set-up: time < 24 hr, route oral; conditions: rat

RAC-alpha serine/threonine-protein kinase, sequence (P31749 whole entry): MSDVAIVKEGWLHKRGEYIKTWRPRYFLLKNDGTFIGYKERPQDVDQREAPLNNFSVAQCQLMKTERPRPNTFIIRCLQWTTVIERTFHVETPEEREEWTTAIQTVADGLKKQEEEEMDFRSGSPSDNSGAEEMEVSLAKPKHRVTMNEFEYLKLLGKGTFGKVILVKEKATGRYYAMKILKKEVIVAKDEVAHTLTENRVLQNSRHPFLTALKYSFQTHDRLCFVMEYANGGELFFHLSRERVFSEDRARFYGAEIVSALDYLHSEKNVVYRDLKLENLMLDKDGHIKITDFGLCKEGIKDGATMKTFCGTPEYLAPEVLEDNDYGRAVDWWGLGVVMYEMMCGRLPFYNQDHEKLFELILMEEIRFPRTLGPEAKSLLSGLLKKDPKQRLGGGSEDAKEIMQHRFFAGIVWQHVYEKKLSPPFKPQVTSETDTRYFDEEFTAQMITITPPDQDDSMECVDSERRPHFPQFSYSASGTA
Vascular endothelial growth factor receptor 2, sequence (P35968 whole entry): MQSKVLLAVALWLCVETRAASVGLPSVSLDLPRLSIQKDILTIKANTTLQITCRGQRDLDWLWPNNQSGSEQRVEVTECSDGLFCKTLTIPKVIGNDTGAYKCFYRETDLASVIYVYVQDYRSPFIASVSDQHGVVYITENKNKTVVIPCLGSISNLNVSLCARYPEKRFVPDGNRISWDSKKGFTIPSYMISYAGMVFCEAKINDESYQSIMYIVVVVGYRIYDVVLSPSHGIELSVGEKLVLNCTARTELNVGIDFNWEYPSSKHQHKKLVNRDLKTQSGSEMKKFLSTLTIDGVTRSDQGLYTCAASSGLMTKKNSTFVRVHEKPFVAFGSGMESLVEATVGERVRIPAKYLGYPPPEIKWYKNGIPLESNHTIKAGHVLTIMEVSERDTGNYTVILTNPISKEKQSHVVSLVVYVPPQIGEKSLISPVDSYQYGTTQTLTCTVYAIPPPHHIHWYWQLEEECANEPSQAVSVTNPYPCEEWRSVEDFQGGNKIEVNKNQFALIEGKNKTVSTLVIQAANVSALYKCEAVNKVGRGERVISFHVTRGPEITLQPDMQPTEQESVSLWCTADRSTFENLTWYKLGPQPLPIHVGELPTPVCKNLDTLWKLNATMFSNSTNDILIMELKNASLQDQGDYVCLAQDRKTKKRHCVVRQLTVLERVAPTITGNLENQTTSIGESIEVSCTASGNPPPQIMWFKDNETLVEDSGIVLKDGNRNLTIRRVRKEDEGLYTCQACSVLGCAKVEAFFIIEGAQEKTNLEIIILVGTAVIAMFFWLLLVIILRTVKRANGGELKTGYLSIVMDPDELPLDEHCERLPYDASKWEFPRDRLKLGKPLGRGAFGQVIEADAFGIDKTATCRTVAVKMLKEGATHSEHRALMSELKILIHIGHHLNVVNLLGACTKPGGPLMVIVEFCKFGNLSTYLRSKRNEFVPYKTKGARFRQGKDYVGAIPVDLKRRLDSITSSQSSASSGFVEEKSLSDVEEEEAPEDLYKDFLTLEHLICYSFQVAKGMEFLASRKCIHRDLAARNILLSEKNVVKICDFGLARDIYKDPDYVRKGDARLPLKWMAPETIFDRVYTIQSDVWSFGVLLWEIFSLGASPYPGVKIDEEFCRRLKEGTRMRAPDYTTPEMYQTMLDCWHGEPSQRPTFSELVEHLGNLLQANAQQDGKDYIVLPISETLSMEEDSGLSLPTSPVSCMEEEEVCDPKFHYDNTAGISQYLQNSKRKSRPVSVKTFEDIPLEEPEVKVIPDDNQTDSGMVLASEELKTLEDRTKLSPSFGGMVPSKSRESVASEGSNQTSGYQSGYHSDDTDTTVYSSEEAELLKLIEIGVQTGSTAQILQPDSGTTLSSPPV
Cyclin-dependent kinase 4, sequence (P11802 whole entry): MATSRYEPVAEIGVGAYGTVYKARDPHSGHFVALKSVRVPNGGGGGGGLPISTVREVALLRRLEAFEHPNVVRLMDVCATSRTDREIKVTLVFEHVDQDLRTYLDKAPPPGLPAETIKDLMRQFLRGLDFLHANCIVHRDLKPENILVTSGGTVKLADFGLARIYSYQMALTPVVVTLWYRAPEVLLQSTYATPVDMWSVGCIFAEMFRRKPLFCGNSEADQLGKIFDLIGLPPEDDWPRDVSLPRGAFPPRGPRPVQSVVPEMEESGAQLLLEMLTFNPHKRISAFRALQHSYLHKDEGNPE
Protein kinase C beta type, sequence (P05771 whole entry): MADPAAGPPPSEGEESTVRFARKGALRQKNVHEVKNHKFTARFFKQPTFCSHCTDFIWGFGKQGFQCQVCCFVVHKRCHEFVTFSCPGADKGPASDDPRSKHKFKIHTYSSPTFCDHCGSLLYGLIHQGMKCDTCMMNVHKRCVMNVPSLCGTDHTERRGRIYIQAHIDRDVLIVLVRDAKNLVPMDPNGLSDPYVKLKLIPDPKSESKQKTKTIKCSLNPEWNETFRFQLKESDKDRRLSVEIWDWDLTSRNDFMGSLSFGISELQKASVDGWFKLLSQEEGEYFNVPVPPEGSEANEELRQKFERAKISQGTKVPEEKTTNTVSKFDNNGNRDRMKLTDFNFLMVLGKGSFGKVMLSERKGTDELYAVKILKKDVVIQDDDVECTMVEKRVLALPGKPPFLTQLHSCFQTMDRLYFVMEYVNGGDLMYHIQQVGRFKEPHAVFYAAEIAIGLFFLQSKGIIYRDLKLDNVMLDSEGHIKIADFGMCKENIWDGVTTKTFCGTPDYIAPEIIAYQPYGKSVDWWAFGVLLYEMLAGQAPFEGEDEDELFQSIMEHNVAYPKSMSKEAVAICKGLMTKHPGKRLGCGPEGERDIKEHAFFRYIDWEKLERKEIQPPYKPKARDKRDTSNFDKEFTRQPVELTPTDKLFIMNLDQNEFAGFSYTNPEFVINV
T1 sequence (P49841 whole entry): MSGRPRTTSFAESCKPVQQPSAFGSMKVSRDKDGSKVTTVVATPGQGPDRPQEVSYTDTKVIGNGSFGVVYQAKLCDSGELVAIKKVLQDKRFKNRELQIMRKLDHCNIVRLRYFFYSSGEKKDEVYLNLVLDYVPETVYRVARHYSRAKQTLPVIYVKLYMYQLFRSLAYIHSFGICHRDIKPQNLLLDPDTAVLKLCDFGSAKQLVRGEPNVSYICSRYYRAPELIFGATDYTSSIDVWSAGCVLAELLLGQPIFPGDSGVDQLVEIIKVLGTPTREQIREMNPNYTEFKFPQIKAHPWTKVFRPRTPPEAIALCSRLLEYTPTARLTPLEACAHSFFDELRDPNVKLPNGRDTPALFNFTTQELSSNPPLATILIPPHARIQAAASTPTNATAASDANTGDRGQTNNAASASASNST
TGF-beta receptor type-2, sequence (P37173 whole entry): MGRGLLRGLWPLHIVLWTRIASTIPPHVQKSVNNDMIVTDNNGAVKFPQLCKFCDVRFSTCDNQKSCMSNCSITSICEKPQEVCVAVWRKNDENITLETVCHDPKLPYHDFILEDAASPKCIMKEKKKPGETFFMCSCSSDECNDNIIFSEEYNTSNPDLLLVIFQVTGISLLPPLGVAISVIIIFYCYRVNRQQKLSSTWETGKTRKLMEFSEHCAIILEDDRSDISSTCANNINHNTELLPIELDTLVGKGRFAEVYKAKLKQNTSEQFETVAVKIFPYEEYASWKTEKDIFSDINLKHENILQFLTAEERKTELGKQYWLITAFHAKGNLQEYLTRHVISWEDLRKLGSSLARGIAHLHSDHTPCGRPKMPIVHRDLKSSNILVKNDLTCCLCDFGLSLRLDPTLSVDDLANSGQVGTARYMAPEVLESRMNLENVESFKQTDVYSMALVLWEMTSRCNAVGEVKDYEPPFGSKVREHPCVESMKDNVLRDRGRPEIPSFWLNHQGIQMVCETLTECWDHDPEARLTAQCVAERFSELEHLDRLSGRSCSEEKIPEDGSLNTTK
Mitogen-activated protein kinase kinase kinase 20, sequence (Q9NYL2 whole entry): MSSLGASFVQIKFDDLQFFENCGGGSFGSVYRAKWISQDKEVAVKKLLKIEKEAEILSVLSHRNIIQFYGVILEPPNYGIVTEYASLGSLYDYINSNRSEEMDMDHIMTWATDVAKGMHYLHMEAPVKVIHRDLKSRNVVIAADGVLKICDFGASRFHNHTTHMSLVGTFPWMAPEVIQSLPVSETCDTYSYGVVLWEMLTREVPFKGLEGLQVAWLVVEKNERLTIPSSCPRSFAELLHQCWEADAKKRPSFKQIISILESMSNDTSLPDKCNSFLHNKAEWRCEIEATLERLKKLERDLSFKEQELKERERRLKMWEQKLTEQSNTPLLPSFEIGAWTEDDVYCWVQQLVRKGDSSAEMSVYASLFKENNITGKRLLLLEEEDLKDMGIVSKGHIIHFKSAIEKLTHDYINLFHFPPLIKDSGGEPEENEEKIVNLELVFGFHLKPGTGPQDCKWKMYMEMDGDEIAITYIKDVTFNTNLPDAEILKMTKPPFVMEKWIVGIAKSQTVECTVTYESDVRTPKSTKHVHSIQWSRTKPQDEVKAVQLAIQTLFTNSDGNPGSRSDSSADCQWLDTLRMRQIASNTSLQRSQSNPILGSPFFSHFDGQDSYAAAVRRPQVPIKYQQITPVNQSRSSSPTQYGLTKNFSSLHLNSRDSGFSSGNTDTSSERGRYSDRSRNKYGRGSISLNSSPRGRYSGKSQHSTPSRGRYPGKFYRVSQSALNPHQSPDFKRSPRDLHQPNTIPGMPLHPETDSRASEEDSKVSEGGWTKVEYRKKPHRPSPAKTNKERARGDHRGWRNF

IC50 [1] | IC50 [2] | IC50 [3] | IC50 [5] | IC50 [6] | IC50 [7] | IC50 [8] | IC50 (TGF-beta receptor type-2) | IC50 [11] | IC50 [12] | IC50 (MAP kinase p38) | clearance [13] | Vd [14] | bioavailability [15] | half-life [16] | half-life [17] | AUC [18] | SMILES | TMED (Rattus norvegicus [4]) | Response (Rattus norvegicus [9]) | Activity (Rattus norvegicus [10])
> 20000 nM | > 20000 nM | > 20000 nM | 800 nM | 15 nM | 3400 nM | 3300 nM | > 20000 nM | 1.3 nM | > 20000 nM | – | – | – | – | – | – | – | CC(C)OC(=O)N1CCn2cc(C3=C(c4cnc5ccccn45)C(=O)NC3=O)c3cccc(c32)C1 | 4.27 mg/kg | 105% | 58%
> 20000 nM | – | > 20000 nM | 1100 nM | 2.6 nM | – | 1700 nM | 2000 nM | 1.3 nM | – | – | – | – | – | – | – | – | O=C1NC(=O)C(c2cnc3ccccn23)=C1c1cn2c3c(cccc13)CN(C(=O)N1CCOCC1)CC2 | 1.44 mg/kg | 119% | 78%
> 20000 nM | > 20000 nM | > 20000 nM | 1000 nM | 12 nM | 2100 nM | 1500 nM | > 20000 nM | 1.6 nM | > 20000 nM | > 20000 nM | – | – | – | – | – | – | CN(C)C(=O)N1CCn2cc(C3=C(c4cnc5ccccn45)C(=O)NC3=O)c3cccc(c32)C1 | – | 104% | 53%
– | > 20000 nM | > 20000 nM | 560 nM | 1.6 nM | 5400 nM | 4800 nM | 3100 nM | 2 nM | – | > 20000 nM | – | – | – | – | – | – | O=C1NC(=O)C(c2cnc3ccccn23)=C1c1cn2c3c(cccc13)CN(C(=O)N1CCCCC1)CC2 | 2.22 mg/kg | 124% | 69%
> 20000 nM | – | > 20000 nM | 420 nM | 0.7 nM | – | 1800 nM | 1200 nM | 1.1 nM | – | – | 12 mL/min/kg | 1 L | 23% | 2.8 h | 1.1 h | 3550 ng·h/mL | O=C1NC(=O)C(c2cnc3ccccn23)=C1c1cn2c3c(cc(F)cc13)CN(C(=O)N1CCCCC1)CC2 [LY-2090314] | 1.5 mg/kg | 124% | 61%
